Measurements as given in patent US6346602B1, “Peptide mimics of the cytokine receptor common γ chain and methods and compositions for making and using the same” (Thomas Jefferson University, priority 1997, dated 2002).

Tested on: IL-4 induced proliferation of CTLL cell line
Experiment: CTLL Proliferation Assay (IL-4)
Type: cell-based, murine
Conditions: CTLL cells, exogenous IL-4 (mIL-4), titred peptide; FIGS. 1A-1D, 2
Protocol: CTLL Proliferation Assay: The murine IL-2- and IL-4-responsive CTLL cell line was used to assess the ability of the gamma chain peptides to inhibit the binding of these cytokines to their respective receptors. The cell line proliferates in responses to exogenously added cytokine and inhibition of this proliferation by the peptides would be a result of blocking the cytokines from interacting with their receptors. Briefly, 5000 CTLL cells are added to the wells of a 96 well microtitre plate. Either 10 U/ml r-mIL-2 or 1 ng/ml r-mIL-4 are added to these wells along with titred amounts of the indicated peptides. Cultures are incubated at 37° C. for 24 hours and pulsed with ^3H-TdR for the final 6 hours to indicate amount of proliferation. Wells containing no peptide are deemed the positive response and well containing no peptide and no cytokine are deemed the background (bkg) proliferation. A percent response is calculated as follows: (CPM experimental-CPM bkg)/CPM positive response-CPM bkg). All data are expressed in this manner.

Sequence | effect on cell proliferation in response to exogenous IL-4
CLNLQNLC [gamma-5] | inhibits cell proliferation
CNHEPRFLSC [gamma-4] | inhibits cell proliferation
